The values below come from US7141601B2, “Dendrite elongation inhibitor for melanocyte and skin preparation for external use containing the same” (Pola Chemiocal Industries Inc., priority 2002, dated 2006).

In this assay the test system is Normal human melanocyte. Nature of the assay: inhibitory action on the elongation of dendrites using human melanocytes. It is filed as cell-based. From the text: According to a method shown below, inhibitory action on the elongation of dendrites was examined using human melanocytes. (Reagent, etc.) Cells, basal media, and amplification additives were purchased from KURABO INDUSTRIES LTD. • (Cell) Normal human melanocyte • (Medium) Basal medium (Medium 154S) supplemented with reagents described below • (Reagent) Amplification additive: bovine pituitary extract (BPE) (final concentration of 0.4% v/v in the medium), fetal bovine serum • (FBS) (final concentration of 0.5% v/v in the medium), human recombinant basic fibroblast growth factor (rFGF-B) (final concentration of 3 ng/ml in the medium), hydrocortisone (final concentration of 0.18 μg/ml in the medium), insulin (final concentration 5 μg/ml in the medium), transferrin (final concentration of 5 μg/ml in the medium), phorbol 12-myristate 13-acetate (PMA) (final concentration of 10 ng/ml in the medium), heparin (final concentration of 3 μg/ml in the medium), and PSA solution (mixture solution of penicillin concentration of 50,000 Unit/ml, streptomycin concentration of 50 μg/ml, and amphotericin B concentration of 12.5 μg/ml; 1-ml addition with respect to 500 ml of the medium) (Method)
Compound 1 (methylophiopogonanone B) obtained in the above-described example of production was diluted in a basal medium so that the concentration was brought up to 100 μg/ml, to make a sample solution. […]

The compound `COc1ccc(CC2COc3c(C)c(O)c(C)c(O)c3C2=O)cc1` (centres unmarked) [Compound 1, 2,3-dihydro-3-[(4-methoxyphenyl)methyl]-5,7-dihydroxy-6,8-dimethyl-4H-1-benzopyran-4-on] had a Length of dendrite (50 μl of 100 μg/ml sample solution added to 200 μl medium, observed 24 hours after addition, growth factors in medium) of 22 ± 6 μm. The “inhibition against the elongation of dendrites (in words)” value (vs control with basal medium only, 24 hours after addition) is recorded as “elongation is inhibited”.
